# Structures can show the parent of a compound that is named as a salt. Where two headings read alike, the source gives them in different places. Numbered stars: 1 amine (or outer) side, 2 acyl side, 3 side chain; on linkers, the order of the positions; unused ones are H or OH. Bridge positions count the residues as written; N and C are the ends. Square brackets hold non-standard residues; d marks the D form. Peptide text beside a SMILES is read from it. I, II: the chains in the order shown. * marks the point of attachment. Actinocin(9to1) = Cc1c2oc3c(C)ccc(C(=O)[*:1])c3nc-2c(C(=O)[*:2])c(N)c1=O; DOTA = O=C(O)CN1CCN(CC(=O)O)CCN(CC(=O)*)CCN(CC(=O)O)CC1; NMeV = CN[C@H](C(=O)O)C(C)C; Ahx = NCCCCCC(=O)O; Sar = CNCC(=O)O
# Tests used:
# [1] = in vivo; cited from earlier work
# [2] = tested on: chronic myelogenous leukemia; conditions: previously untreated chronic myelogenous leukemia; cited from earlier work
# [3] = cited from earlier work
# [4] = cited from earlier work; remark: listed apart in the source
# [5] = in vivo; cited from earlier work; remark: listed apart in the source
# [6] = tested on: T47D (Human) breast cancer cells; assay: In vitro competitive cell binding assay, T47D; conditions: competitive binding vs. ^125I-Tyr^5-6-Ahx-Phe^19-STh or ^125I-Tyr^5-Phe^19-STh; read-out: In vitro IC50, Breast T47D (Human)
# Procedure: (§1) In Vitro Competitive Cell Binding Assay. The IC50 values of both metallated and non-metallated STh conjugates were determined in human cancer cells by a competitive displacement cell binding assay using ^125I-STh (^125I-Tyr^5-Phe^19-STh or ^125I-Tyr^5-6-Ahx-Phe^19-STh). […] After the incubation, the reaction medium was aspirated and cells were washed three times with media. The radioactivity bound to the cells was counted in a Packard Riastar gamma counting system. The ^125I-STh bound to cells was plotted vs. increasing concentrations of STh conjugate to determine the respective IC50 values (Table 3). For statistical considerations, three separate in vitro cell binding experiments with each conjugate were performed in duplicate.
# [7] = tested on: MB-231 (Human) breast cancer cells; assay: In vitro competitive cell binding assay, MB-231; conditions: competitive binding vs. ^125I-Tyr^5-6-Ahx-Phe^19-STh or ^125I-Tyr^5-Phe^19-STh; read-out: In vitro IC50, Breast MB-231 (Human)
# Procedure: as §1
# [8] = tested on: MCF-7 (Human) breast cancer cells; assay: In vitro competitive cell binding assay, MCF-7; conditions: competitive binding vs. ^125I-Tyr^5-6-Ahx-Phe^19-STh or ^125I-Tyr^5-Phe^19-STh
# Procedure: as §1
# [9] = tested on: CFPAC-1 (Human) pancreatic cancer cells; assay: In vitro competitive cell binding assay, CFPAC-1; conditions: competitive binding vs. ^125I-Tyr^5-6-Ahx-Phe^19-STh or ^125I-Tyr^5-Phe^19-STh
# Procedure: as §1
# [10] = tested on: PC-3 (Human) prostate cancer cells; assay: In vitro competitive cell binding assay, PC-3; conditions: competitive binding vs. ^125I-Tyr^5-6-Ahx-Phe^19-STh or ^125I-Tyr^5-Phe^19-STh
# Procedure: as §1
# [11] = tested on: A375 (Human) melanoma cells; assay: In vitro competitive cell binding assay, A375; conditions: competitive binding vs. ^125I-Tyr^5-6-Ahx-Phe^19-STh or ^125I-Tyr^5-Phe^19-STh
# Procedure: as §1
# [12] = in vivo, cited from earlier work
# [13] = in vivo; cited from earlier work; remark: listed apart in the source
# [14] = oral radioactive lomustine, cited from earlier work
# multiple myeloma = conditions: oral administration; cited from earlier work
# [15] = humans, cited from earlier work
# Hodgkin's disease = conditions: cited from earlier work
# [16] = cited from earlier work; remark: listed apart in the source
# T-47D cells = assay: Scatchard analysis, T-47D; assay type: binding, human
# Procedure: (§2) Scatchard Analysis. Scatchard analysis was performed in human cancer cells by a receptor-binding assay using ^125I-STh and 6-Ahx-Phe^19-STh or Phe^19-STh. […] After the incubation, the reaction medium was aspirated and cells were washed three times with media. The radioactivity bound to the cells was counted in a Packard Riastar gamma counting system. The experiment was performed in duplicate and average values were used for the calculations. The total bound peptide (B, both radioactive and non-radioactive), was obtained by multiplying the fraction of bound labeled peptide with the total concentration of peptide (both radioactive and non-radioactive). The total free peptide (F, both radioactive and non-radioactive) was obtained by substracting the total bound peptide from the total concentration of peptide. The non-specific binding was neglected in the calculations as it was <3%. The ratio of concentration of total bound and total free peptide (B/F) was plotted vs. total bound peptide (B) to determine the Kd (−1/slope) and Bmax (X-intercept) values. The number of receptors per cell was calculated from the Bmax (Table 4).
# MB-231 cells = assay: Scatchard analysis, MB-231; assay type: binding, human
# Procedure: as §2
# [17] = single oral doses of about 0.6 mg/kg to about […]
# [18] = at equilibrium, calculated using Bmax value
compound,measurement,setting,value
"Cc1c2oc3c(C)ccc(C(=O)N[C@@H]4C(=O)N[C@H](C(C)C)C(=O)N5CCC[C@H]5C(=O)N(C)CC(=O)N(C)[C@@H](C(C)C)C(=O)O[C@@H]4C)c3nc-2c(C(=O)N[C@@H]2C(=O)N[C@H](C(C)C)C(=O)N3CCC[C@H]3C(=O)N(C)CC(=O)N(C)[C@@H](C(C)C)C(=O)O[C@@H]2C)c(N)c1=O [Actinomycin D] (I: T[dV]P[Sar][NMeV] / II: T[dV]P[Sar][NMeV]; ester I:1-I:C, II:1-II:C; linker I:N-II:N via Actinocin(9to1))",dose excreted intact into the bile,[1],Half of the dose
same,dose excreted intact into the urine,[1],10%
same,half-life,[1],about 36 hours
same,passage of the blood-brain barrier,[1],does not pass the blood-brain barrier
"CS(=O)(=O)OCCCCOS(C)(=O)=O [Busulfan, 1,4-butanediol dimethanesulfonate]",adults obtaining hematologic remission with regression or stabilization of organomegaly,[2],Approximately 90%
"O=NN(CCCl)C(=O)NCCCl [Carmustine, 1,3 bis(2-chloroethyl)-1-nitrosourea]",solubility in alcohol and lipids,[3]; alcohol and lipids,highly soluble
same,solubility in water,[3],poorly soluble in water
"O=C(O)CCCc1ccc(N(CCCl)CCCl)cc1 [Chlorambucil, 4-[bis(2-chlorethyl)amino] benzenebutanoic acid]",absorption from the gastrointestinal tract,"[4]; oral, tablet",rapidly and completely absorbed
same,terminal half-life of the parent drug,[4]; [17],about 1.5 hours
same,time to peak plasma chlorambucil levels,[4]; [17],within one hour
N.N.[Cl][Pt][Cl] [Cisplatin],oral absorption,[5],not absorbed orally
"CC(C)C[C@@H]1NC(=O)[C@H](CCC(=O)O)NC(=O)[C@@H]2CSSC[C@@H]3NC(=O)[C@H](C)NC(=O)[C@@H]4CCCN4C(=O)[C@H](CC(N)=O)NC(=O)[C@H](CSSC[C@H](NC(=O)[C@H](Cc4ccc(O)cc4)NC(=O)[C@H](CC(N)=O)NC(=O)[C@H](CO)NC(=O)[C@H](CO)NC(=O)[C@H](CC(N)=O)NC(=O)CCCCCNC(=O)CN4CCN(CC(=O)O)CCN(CC(=O)O)CCN(CC(=O)O)CC4)C(=O)N2)NC(=O)[C@H](CSSC[C@@H](C(=O)N[C@@H](Cc2ccccc2)C(=O)O)NC(=O)CNC(=O)[C@H]([C@@H](C)O)NC3=O)NC1=O [DOTA-6-Ahx-Phe^19-STh] ({DOTA-Ahx}-NSSNYCCELCCNPACTGCF-OH; disulfide 6-11, 7-15, 10-18)",IC50,[6],0.5 nM
same,IC50,[7],3.9 nM
same,IC50,[8],14.1 nM
same,IC50,[9],2.8 nM
same,IC50,[10],7 nM
same,IC50,[11],1.5 nM
"COc1cccc2c1C(=O)c1c(O)c3c(c(O)c1C2=O)C[C@@](O)(C(C)=O)C[C@@H]3O[C@H]1C[C@H](N)[C@H](O)[C@H](C)O1 [Daunorubicin, 5,12-Naphthacenedione, (8S-cis)-8-acetyl-10-[(3-amino-2,3,6-trideoxy-a-L-lyxo-hexanopyranosyl)oxy]-7,8,9,10-tetrahydro-6,8,11-trihydroxy-10-methoxy-, hydrochloride]",oral absorption,[12]; po,poor
same,half-life of elimination,[12],about 19 hours
"COc1cccc2c1C(=O)c1c(O)c3c(c(O)c1C2=O)C[C@@](O)(C(=O)CO)C[C@@H]3O[C@H]1C[C@H](N)[C@H](O)[C@H](C)O1 [Doxorubicin, 5,12-Naphthacenedione, (8s-cis)-10-[(3-amino-2,3,6-trideoxy-a-L-lyxo-hexopyranosyl)oxy]-7,8,9,10-tetrahydro-6,8, 11-trihydroxy-8-(hydroxyacetyl)-1-methoxy-hydrochloride]",absorption,[13],absorbed poorly
same,elimination half-life,[13],about 30 hours
"CC(C)C[C@@H]1NC(=O)[C@H](CCC(=O)O)NC(=O)[C@@H]2CSSC[C@@H]3NC(=O)[C@H](C)NC(=O)[C@@H]4CCCN4C(=O)[C@H](CC(N)=O)NC(=O)[C@H](CSSC[C@H](NC(=O)[C@H](Cc4ccc(O)cc4)NC(=O)[C@H](CC(N)=O)NC(=O)[C@H](CO)NC(=O)[C@H](CO)NC(=O)[C@H](CC(N)=O)NC(=O)CN4CCN(CC(=O)O)CCN(CC(=O)O)CCN(CC(=O)O)CC4)C(=O)N2)NC(=O)[C@H](CSSC[C@@H](C(=O)N[C@@H](Cc2ccccc2)C(=O)O)NC(=O)CNC(=O)[C@H]([C@@H](C)O)NC3=O)NC1=O [In-DOTA-Phe^19-STh] ({DOTA}-NSSNYCCELCCNPACTGCF-OH; disulfide 6-11, 7-15, 10-18)",IC50,[6],8.9 ± 2.2 nM
"O=NN(CCCl)C(=O)NC1CCCCC1 [Lomustine, 1-(2-chloro-ethyl)-3-cyclohexyl-1 nitrosourea]",radioactivity excreted in the form of degradation products within 24 hours,[14]; about 30 mg/m^2 to 100 mg/m^2,about half
same,serum half-life of the metabolites,[14],about 16 hours to about 2 days
same,solubility in 10% ethanol,[3]; 10% ethanol,about 0.05 mg/mL
same,solubility in absolute alcohol,[3]; absolute alcohol,about 70 mg/mL
same,ionization at physiological pH,[3]; physiological pH,relatively unionized
same,solubility in water,[3],less than 0.05 mg/mL
"N[C@@H](Cc1ccc(N(CCCl)CCCl)cc1)C(=O)O [Melphalan, 4-[bis(2-chloroethyl)amino]-L-phenylalanine]",patients with multiple myeloma showing a favorable response,multiple myeloma,about one third to one half
same,solubility in water,[3],insoluble in water
CO[C@@]12[C@H](COC(N)=O)C3=C(C(=O)C(C)=C(N)C3=O)N1C[C@@H]1N[C@@H]12 [Mitomycin],time required to reduce the serum concentration by about 50%,[15]; 30 mg bolus injection,17 min
same,dose excreted unchanged in the urine,[15],Approximately 10%
COc1cccc2c1C(=O)c1c(O)c3c(c(O)c1C2=O)C[C@@](O)([C@H](C)O)C[C@@H]3O[C@H]1C[C@H](N)[C@H](O)[C@H](C)O1 [daunorubicinol],half-life of active metabolite,[12],about 27 hours
CC[C@]1(O)C[C@@H]2CN(CCc3c([nH]c4ccccc34)[C@@](C(=O)OC)(c3cc4c(cc3OC)N(C)[C@H]3[C@@](O)(C(=O)OC)[C@H](OC(C)=O)[C@]5(CC)C=CCN6CC[C@]43[C@@H]65)C2)C1 [vinblastine],cases with significant improvement,Hodgkin's disease,50 to 90%
same,half-life of disappearance from plasma after distribution,[16]; intravenous injection,~20 h
same,half-life of disappearance from plasma after distribution (first given),[16]; intravenous injection,approximately 1 hours
CC[C@]1(O)C[C@H]2CN(CCc3c([nH]c4ccccc34)[C@@](C(=O)OC)(c3cc4c(cc3OC)N(C=O)[C@H]3[C@@](O)(C(=O)OC)[C@H](OC(C)=O)[C@]5(CC)C=CCN6CC[C@]43[C@@H]65)C2)C1 [vincristine],terminal half-life (plasma),[16]; in vivo,about 24 hours
^125I-Tyr^5-6-Ahx-Phe^19-STh,Kd,T-47D cells; Scatchard plot,4.4 nM
same,No. of receptors per cell,T-47D cells; [18],"41,758"
same,Kd,MB-231 cells; Scatchard plot,4 nM
same,No. of receptors per cell,MB-231 cells; [18],"112,786"

# Source: patent US20030232013A1, “Therapeutic and diagnostic targeting of cancers cells with tumor homing peptides” (priority 2002, published 2003)
